The target of assay [1] is kinase panel containing either 386 or 392 distinct kinases. The assay can be described thus: Kinase selectivity score S10 from competition binding panel. As to conditions: compounds at 10 μM; 386 or 392 distinct kinases. The procedure:
Competition binding assays used herein were developed, validated and performed as described in Fabian et al., Nature Biotechnology 2005, 23, 329-336. Kinases were produced as fusions to T7 phage (See, Fabian et al. or WO04/015142) or alternatively, the kinases were expressed in HEK-293 cells and subsequently tagged with DNA for PCR detection (See, WO08/005310). For the binding assays, streptavidin-coated magnetic beads were treated with biotinylated affinity ligands for 30 min at room temperature to generate affinity resins. The liganded beads were blocked with excess biotin and washed with blocking buffer (SeaBlock (Pierce), 1% BSA, 0.05% Tween 20, 1 mM DTT) to remove unbound ligand and to reduce non-specific binding. Binding reactions were assembled by combining kinase, liganded affinity beads, and test compounds in 1× binding buffer (20% SeaBlock, 0.17×PBS, 0.05% Tween 20, 6 mM DTT). Test compounds were prepared as 100× stocks in DMSO and diluted into the aqueous environment. Kds were determined using an eleven point threefold serial dilutions. DMSO or control compounds were was added to control assays lacking a test compound. Primary screen assays were performed in polypropylene 384-well plates in a final volume of 20-40 μL, while Kd determinations were performed in polystyrene 96-well plates in a final volume of 135 μL. The assay plates were incubated at room temperature with shaking for 1 hour to allow the binding reactions to reach equilibrium, and the affinity beads were washed extensively with wash buffer (1×PBS, 0.05% Tween 20) to remove unbound protein. The beads were then resuspended in elution buffer (1×PBS, 0.05% Tween […] non-biotinylated affinity ligand) and incubated at room temperature with shaking for 30 min. The kinase concentration in the eluates was measured by quantitative PCR.
A selectivity score (S10) is a quantitative measure of selectivity of a compound against a panel of kinases. An S10 was calculated for a compound by dividing the number of kinases found to have a percent of control (DMSO) less than 10 by the total number of distinct kinases tested (excluding mutant variants). Percent of control (POC) is calculated by subtracting the signal of the control compound (POC=0) from the signal of the test compound and dividing the outcome by the signal of DMSO (POC=100) minus the signal of the control compound. For the compounds disclosed herein, S10 scores were obtained by testing the compounds at 10 μM concentration in a kinase panel containing either 386 or 392 distinct kinases.

For another assay, the target named is T1, PDGFRβ (Homo sapiens, UniProt P09619).
T1 construct: made in house
Description: Competition binding assay, PDGFRβ Kd. The procedure, abridged: (§1)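 Kinases, either T7 phage fusions or HEK-293-expressed and DNA-tagged, competed with test compounds for immobilized biotinylated affinity ligand on streptavidin beads in binding buffer (20% SeaBlock, 0.17×PBS, 0.05% Tween 20, 6 mM DTT). After 1 hour at room temperature, bead-bound kinase was eluted and quantified by qPCR; Kd from eleven-point threefold dilutions.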

For a further assay, the target named is CSF1R (Homo sapiens, UniProt P07333). Description: Competition binding assay, CSF1R Kd. Further details: made in house. In a few lines: as §1
The next assay concerns M-NFS-60 cells. The assay can be described thus: M-NFS-60 cell proliferation assay (Alamar Blue). In kind it is cell-based, mouse. As to conditions: Mus musculus; 72 hours incubation, M-CSF 20 ng/mL; read-out: CSF1R M-NFS-60 CTB:IC50. The procedure, abridged: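 Mouse M-NFS-60 cells growing on 20 ng/mL M-CSF in RPMI/10% FBS were exposed to compounds (9 half-log concentrations, 0.5% DMSO) for 72 h at 37 °C. Viability read by Alamar Blue fluorescence (ex 560/em 590 nm, 3 h). IC50 = 50% proliferation inhibition versus control, mean of duplicates.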
Background: Resazurin is reduced to fluorescent resorufin, in cell work by metabolically active cells.

The target of a further assay is T2, KIT (Homo sapiens, UniProt P10721).
T2 construct: made in house
The assay can be described thus: Competition binding assay, KIT Kd. In a few lines:
as §1

T2 sequence (P10721 26-976): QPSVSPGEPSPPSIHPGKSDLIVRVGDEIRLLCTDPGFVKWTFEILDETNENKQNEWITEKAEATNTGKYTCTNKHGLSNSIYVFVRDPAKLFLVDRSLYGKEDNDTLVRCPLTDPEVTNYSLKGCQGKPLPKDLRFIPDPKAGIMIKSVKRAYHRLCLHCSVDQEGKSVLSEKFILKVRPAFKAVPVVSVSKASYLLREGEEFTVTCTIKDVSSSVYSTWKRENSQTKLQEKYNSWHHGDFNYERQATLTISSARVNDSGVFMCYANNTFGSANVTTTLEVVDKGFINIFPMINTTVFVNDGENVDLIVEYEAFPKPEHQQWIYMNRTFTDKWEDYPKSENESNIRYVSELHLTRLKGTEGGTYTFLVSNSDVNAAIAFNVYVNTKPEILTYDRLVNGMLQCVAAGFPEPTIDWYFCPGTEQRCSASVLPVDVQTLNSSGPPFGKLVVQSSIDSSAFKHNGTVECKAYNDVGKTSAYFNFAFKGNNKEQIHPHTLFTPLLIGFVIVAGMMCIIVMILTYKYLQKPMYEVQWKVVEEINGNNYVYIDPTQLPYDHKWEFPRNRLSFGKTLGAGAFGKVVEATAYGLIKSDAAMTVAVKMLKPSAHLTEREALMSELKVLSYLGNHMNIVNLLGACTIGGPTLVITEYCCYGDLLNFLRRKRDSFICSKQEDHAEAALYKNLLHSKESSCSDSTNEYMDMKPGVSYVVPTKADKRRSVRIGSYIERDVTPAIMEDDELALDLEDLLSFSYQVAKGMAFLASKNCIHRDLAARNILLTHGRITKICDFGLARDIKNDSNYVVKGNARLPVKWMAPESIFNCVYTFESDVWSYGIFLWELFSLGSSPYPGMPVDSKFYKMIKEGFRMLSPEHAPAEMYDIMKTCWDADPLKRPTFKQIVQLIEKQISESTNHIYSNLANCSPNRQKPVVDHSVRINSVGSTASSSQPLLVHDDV
T1 sequence (P09619 33-1106): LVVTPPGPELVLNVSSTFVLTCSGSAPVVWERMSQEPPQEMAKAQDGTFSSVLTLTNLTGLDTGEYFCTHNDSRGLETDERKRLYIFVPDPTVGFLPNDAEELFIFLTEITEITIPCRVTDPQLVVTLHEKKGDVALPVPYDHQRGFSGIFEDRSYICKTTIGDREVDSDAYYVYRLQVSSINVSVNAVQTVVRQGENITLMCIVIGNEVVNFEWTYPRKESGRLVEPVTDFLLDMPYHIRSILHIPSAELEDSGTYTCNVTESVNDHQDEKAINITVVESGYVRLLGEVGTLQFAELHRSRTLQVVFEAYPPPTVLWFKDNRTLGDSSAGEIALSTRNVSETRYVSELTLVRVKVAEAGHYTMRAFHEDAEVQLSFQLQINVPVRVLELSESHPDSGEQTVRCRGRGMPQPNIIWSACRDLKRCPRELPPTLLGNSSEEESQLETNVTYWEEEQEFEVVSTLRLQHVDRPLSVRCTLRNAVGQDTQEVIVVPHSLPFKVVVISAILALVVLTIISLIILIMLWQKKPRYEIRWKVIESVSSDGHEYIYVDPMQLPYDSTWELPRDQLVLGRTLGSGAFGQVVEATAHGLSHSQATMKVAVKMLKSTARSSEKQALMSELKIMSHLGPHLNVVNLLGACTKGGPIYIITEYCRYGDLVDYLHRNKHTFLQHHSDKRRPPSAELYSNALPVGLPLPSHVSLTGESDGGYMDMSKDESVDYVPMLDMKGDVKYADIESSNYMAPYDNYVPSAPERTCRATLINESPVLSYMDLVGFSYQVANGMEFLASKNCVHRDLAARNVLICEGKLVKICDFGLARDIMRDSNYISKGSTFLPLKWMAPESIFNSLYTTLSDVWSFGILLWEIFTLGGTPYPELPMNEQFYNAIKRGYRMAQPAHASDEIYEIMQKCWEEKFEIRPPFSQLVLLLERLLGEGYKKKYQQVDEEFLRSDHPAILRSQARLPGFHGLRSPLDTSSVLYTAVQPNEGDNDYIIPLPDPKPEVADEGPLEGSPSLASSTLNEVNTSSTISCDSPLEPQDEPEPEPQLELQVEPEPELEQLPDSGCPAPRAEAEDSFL
Sequence of CSF1R (P07333 20-972): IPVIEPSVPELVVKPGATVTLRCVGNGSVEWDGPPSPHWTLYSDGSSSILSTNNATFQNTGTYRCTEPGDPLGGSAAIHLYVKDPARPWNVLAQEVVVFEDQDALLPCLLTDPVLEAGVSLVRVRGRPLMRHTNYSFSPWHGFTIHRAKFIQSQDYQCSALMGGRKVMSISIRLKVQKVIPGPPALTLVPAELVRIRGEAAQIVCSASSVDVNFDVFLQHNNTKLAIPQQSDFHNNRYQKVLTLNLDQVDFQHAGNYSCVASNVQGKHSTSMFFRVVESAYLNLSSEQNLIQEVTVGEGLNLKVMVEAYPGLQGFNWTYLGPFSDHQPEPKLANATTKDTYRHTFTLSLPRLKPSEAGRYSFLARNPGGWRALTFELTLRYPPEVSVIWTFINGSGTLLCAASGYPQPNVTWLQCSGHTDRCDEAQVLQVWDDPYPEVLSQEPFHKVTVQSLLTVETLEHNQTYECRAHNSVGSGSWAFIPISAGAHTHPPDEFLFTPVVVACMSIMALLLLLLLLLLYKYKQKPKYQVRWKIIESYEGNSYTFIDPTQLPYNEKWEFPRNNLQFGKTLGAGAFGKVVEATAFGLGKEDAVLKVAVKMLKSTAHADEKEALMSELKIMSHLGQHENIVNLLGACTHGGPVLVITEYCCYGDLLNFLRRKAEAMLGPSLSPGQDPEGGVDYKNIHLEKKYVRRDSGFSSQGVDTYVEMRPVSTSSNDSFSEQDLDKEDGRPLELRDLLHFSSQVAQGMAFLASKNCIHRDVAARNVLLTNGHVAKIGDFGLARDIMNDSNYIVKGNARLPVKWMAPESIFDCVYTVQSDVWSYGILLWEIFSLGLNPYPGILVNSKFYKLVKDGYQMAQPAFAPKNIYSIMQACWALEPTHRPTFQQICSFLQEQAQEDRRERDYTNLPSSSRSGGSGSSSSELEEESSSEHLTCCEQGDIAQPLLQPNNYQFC

Consider `COc1cc2ncn(Cc3ccc4nc(N[C@@H]5CCCCC[C@H]5O)sc4c3)c2cc1OC` (racemic) [Example 50, (±)-2-((6-((5,6-dimethoxy-1H-benzo[d]imidazol-1-yl)methyl)benzo[d]thiazol-2-yl)amino)cycloheptanol], for which, in assay [1], the “Kinase specificity S(10)” value is on record as “C (C>0.02)”. Besides, the Kd at PDGFRβ is at most 50 nM; at CSF1R, at most 5 nM; at KIT it was at most 100 nM. The IC50 in the assay on M-NFS-60 cells was at most 50 nM.
Take `CS(=O)(=O)O.O[C@@H]1CCCC[C@H]1Nc1nc2ccc(Cn3cnc4cccnc43)cc2s1` [Example 3, (1R,2R)-2-((6-((3H-imidazo[4,5-b]pyridin-3-yl)methyl)benzo[d]thiazol-2-yl)amino)cyclohexanol methanesulfonic acid]: the “Kinase specificity S(10)” value in assay [1] is reported as “B (0.01<B≤0.02)”. In addition, the Kd at PDGFRβ was 50 to 500 nM; at CSF1R, at most 5 nM; at KIT, 100 to 500 nM. The IC50 in the assay with M-NFS-60 cells lay in the range of 50 to 400 nM.
As for `COc1cc2ncn(Cc3ccc4nc(N[C@@H](C)C5CCCCC5)sc4c3)c2cc1OC` [Example 33, (S)—N-(1-cyclohexylethyl)-6-((5,6-dimethoxy-1H-benzo[d]imidazol-1-yl)methyl)benzo[d]thiazol-2-amine], in assay [1], the “Kinase specificity S(10)” value is recorded as “C (C>0.02)”. For the same compound, the Kd at PDGFRβ is at most 50 nM; on CSF1R it was 5 to 20 nM; on KIT it was at most 100 nM. In addition, the IC50 in the assay on M-NFS-60 cells was in the range of 50 to 400 nM.
On to `COc1cc2ncn(Cc3ccc4nc(N[C@@H]5CCCC[C@H]5O)oc4c3)c2cc1OC` [Example 34, (1R,2R)-2-((6-((5,6-dimethoxy-1H-benzo[d]imidazol-1-yl)methyl)benzo[d]oxazol-2-yl)amino)cyclohexanol], for which the “Kinase specificity S(10)” value in assay [1] is given as “C (C>0.02)”. Moreover, the dissociation constant (Kd) on PDGFRβ was in the range of 50 to 500 nM; at CSF1R it was 5 to 20 nM; at KIT, 100 to 500 nM. In addition, the IC50 with M-NFS-60 cells is 50 to 400 nM.
For `COc1cc2ncn(Cc3ccc4nc(NCC5CCCCC5)oc4c3)c2cc1OC` [Example 35, N-(cyclohexylmethyl)-6-((5,6-dimethoxy-1H-benzo[d]imidazol-1-yl)methyl)benzo[d]oxazol-2-amine] the same measures were “C (C>0.02)”, at most 50 nM, at most 5 nM, at most 100 nM and 50 to 400 nM.
Consider `Cn1cc(-c2cn(Cc3ccc4nc(N[C@@H]5CCCC[C@H]5O)sc4c3)cn2)cn1` [Example 36, (1R,2R)-2-((6-((4-(1-methyl-1H-pyrazol-4-yl)-1H-imidazol-1-yl)methyl)benzo[d]thiazol-2-yl)amino)cyclohexanol], for which the “Kinase specificity S(10)” value in assay [1] is listed as “A (A≤0.01)”. Besides, the Kd at PDGFRβ was over 2000 nM; on CSF1R it was 5 to 20 nM; on KIT it was 500 to 2000 nM. Besides, the IC50 with M-NFS-60 cells is 50 to 400 nM.
For `CNC(=O)c1cn(Cc2ccc3nc(N[C@@H]4CCCC[C@H]4O)sc3c2)cn1` [Example 37, 1-((2-(((1R,2R)-2-hydroxycyclohexyl)amino)benzo[d]thiazol-6-yl)methyl)-N-methyl-1H-imidazole-4-carboxamide], in that order: “A (A≤0.01)”, over 2000 nM, over 50 nM, over 2000 nM and over 1500 nM.
For `O[C@@H]1CCCC[C@H]1Nc1nc2ccc(Cc3cnc4ccccn34)cc2s1` [Example 38, (1R,2R)-2-((6-(imidazo[1,2-a]pyridin-3-ylmethyl)benzo[d]thiazol-2-yl)amino)cyclohexanol], in that order: “A (A≤0.01)”, over 2000 nM, 20 to 50 nM, 500 to 2000 nM and 400 to 1500 nM.
As to `Cn1cc(-c2cnc3c(c2)ncn3Cc2ccc3nc(N[C@@H]4CCCC[C@H]4O)sc3c2)cn1` [Example 39, (1R,2R)-2-((6-((6-(1-methyl-1H-pyrazol-4-yl)-3H-imidazo[4,5-b]pyridin-3-yl)methyl)benzo[d]thiazol-2-yl)amino)cyclohexanol], the “Kinase specificity S(10)” value in assay [1] is reported as “C (C>0.02)”. For the same compound, the figures for the Kd at PDGFRβ, on CSF1R and on KIT were at most 50 nM, at most 5 nM and at most 100 nM, respectively. Moreover, the IC50 in the assay with M-NFS-60 cells was at most 50 nM.
`O[C@@H]1CCCC[C@H]1Nc1nc2ccc(Cn3cnc4cc(-c5cccnc5)cnc43)cc2s1` [Example 40, (1R,2R)-2-((6-((6-(pyridin-3-yl)-3H-imidazo[4,5-b]pyridin-3-yl)methyl)benzo[d]thiazol-2-yl)amino)cyclohexanol]: the “Kinase specificity S(10)” value in assay [1] is on record as “B (0.01<B≤0.02)”. In addition, the Kd at PDGFRβ is at most 50 nM; at CSF1R, at most 5 nM; at KIT, at most 100 nM. The IC50 with M-NFS-60 cells is at most 50 nM.
With `COc1cc2c(cc1Br)ncn2Cc1ccc2nc(N[C@@H]3CCCC[C@H]3O)sc2c1` [Example 41, (1R,2R)-2-((6-((5-bromo-6-methoxy-1H-benzo[d]imidazol-1-yl)methyl)benzo[d]thiazol-2-yl)amino)cyclohexanol], the “Kinase specificity S(10)” value in assay [1] is given as “A (A≤0.01)”. Besides, the Kd on PDGFRβ was in the range of 500 to 2000 nM; on CSF1R it was 5 to 20 nM; on KIT, 100 to 500 nM. Besides, the IC50 with M-NFS-60 cells was 50 to 400 nM.
For `O[C@@H]1Cc2ccccc2[C@H]1Nc1nc2ccc(Cn3cnc4cc(Br)cnc43)cc2s1` [Example 42, (1R,2R)-1-((6-((6-bromo-3H-imidazo[4,5-b]pyridin-3-yl)methyl)benzo[d]thiazol-2-yl)amino)-2,3-dihydro-1H-inden-2-ol] the same measures were “B (0.01<B≤0.02)”, at most 50 nM, at most 5 nM, at most 100 nM and 50 to 400 nM.
Regarding `N#Cc1cnc2c(c1)ncn2Cc1ccc2nc(N[C@@H]3CCCC[C@H]3O)sc2c1` [Example 43, 3-((2-(((1R,2R)-2-hydroxycyclohexyl)amino)benzo[d]thiazol-6-yl)methyl)-3H-imidazo[4,5-b]pyridine-6-carbonitrile], the “Kinase specificity S(10)” value in assay [1] is reported as “B (0.01<B≤0.02)”. In addition, the Kd lay in the range of 50 to 500 nM on PDGFRβ, 5 to 20 nM on CSF1R and 100 to 500 nM on KIT. The IC50 with M-NFS-60 cells was in the range of 50 to 400 nM.
For `COc1ccn2c(Cc3ccc4nc(N[C@@H]5CCCC[C@H]5O)sc4c3)cnc2c1` [Example 44, (1R,2R)-2-((6-((7-methoxyimidazo[1,2-a]pyridin-3-yl)methyl)benzo[d]thiazol-2-yl)amino)cyclohexanol] the same measures were “A (A≤0.01)”, 500 to 2000 nM, 5 to 20 nM, 500 to 2000 nM and 50 to 400 nM.
Take `O[C@@H]1CCCC[C@H]1Nc1nc2ccc(Cn3cnc4cc(C5CC5)cnc43)cc2s1` [Example 45, (1R,2R)-2-((6-((6-cyclopropyl-3H-imidazo[4,5-b]pyridin-3-yl)methyl)benzo[d]thiazol-2-yl)amino)cyclohexanol]: the “Kinase specificity S(10)” value in assay [1] is given as “B (0.01<B≤0.02)”. Moreover, the Kd at PDGFRβ is at most 50 nM; on CSF1R, at most 5 nM; on KIT it was at most 100 nM. The IC50 with M-NFS-60 cells was at most 50 nM.

One may read the Kd as the constant that tells how readily two partners part at equilibrium. A lower Kd goes with tighter binding. The term IC50 denotes the point on the concentration scale where inhibition reaches its midpoint.

The record behind these values is US9938261B2, “Heterocyclic compounds and methods of use thereof” (AMBIT BIOSCIENCES CORPORATION, priority 2011, dated 2018).
